Values after ≈ are worked out from the molar mass of the structure shown.
Columns and labels:
[1] = Antitumor activity against human U87MG cells xenografted in nu/nu CD1 mouse model assessed as maximum tumor regression at 50 mg/kg, po qd for 14 days; format: functional, U-87MG ATCC
[2] = Antitumor activity against human U87MG cells xenografted in nu/nu CD1 mouse model assessed as tumor growth inhibition at 200 mg/kg, po qd for 14 days; format: functional, U-87MG ATCC; conditions: U-87 MG, 336 h, read-out: TGI
[3] = Antitumor activity against human U87MG cells xenografted in nu/nu CD1 mouse model assessed as tumor growth inhibition at 100 mg/kg, po qd for 14 days; format: functional, U-87MG ATCC; conditions: U-87 MG, 336 h, read-out: TGI
[4] = Antitumor activity against human U87MG cells xenografted in nu/nu CD1 mouse model assessed as tumor growth inhibition at 50 mg/kg, po qd for 14 days; format: functional, U-87MG ATCC; conditions: U-87 MG, 336 h, read-out: TGI
Mus musculus [5] = test: Inhibition of cMET autophosphorylation at Y1234/1235 in human MKN45 cells xenografted in nu/nu CD1 mouse at 100 mg/kg, po qd for 14 days measured after 24 hrs of last dose; format: functional; conditions: MKN-45
[6] = Protein binding in human plasma by equilibrium dialysis; format: ADME, cell-free; conditions: read-out: PPB (converted)
Mus musculus [7] = test: Toxicity in human U87MG cells xenografted nu/nu CD1 mouse model assessed as body weigh loss at 100 mg/kg, po bid for 14 days; format: organism-based, U-87MG ATCC; set-up: dose 100 mg/kg, route oral; conditions: in vivo, 336 h
Mus musculus [8] = test: Toxicity in human U87MG cells xenografted nu/nu CD1 mouse model assessed as body weigh loss at 50 mg/kg, po bid for 14 days; format: organism-based, U-87MG ATCC; set-up: dose 50 mg/kg, route oral; conditions: in vivo, 336 h
Mus musculus [9] = test: Toxicity in human U87MG cells xenografted nu/nu CD1 mouse model assessed as body weigh loss at 200 mg/kg, po qd for 14 days; format: organism-based, U-87MG ATCC; set-up: dose 200 mg/kg, route oral; conditions: in vivo, 336 h
Mus musculus [10] = test: Toxicity in human U87MG cells xenografted nu/nu CD1 mouse model assessed as body weigh loss at 100 mg/kg, po qd for 14 days; format: organism-based, U-87MG ATCC; set-up: dose 100 mg/kg, route oral; conditions: in vivo, 336 h
Mus musculus [11] = test: Toxicity in human U87MG cells xenografted nu/nu CD1 mouse model assessed as body weigh loss at 50 mg/kg, po qd for 14 days; format: organism-based, U-87MG ATCC; set-up: dose 50 mg/kg, route oral; conditions: in vivo, 336 h
[12] = Antitumor activity against human U87MG cells xenografted in nu/nu CD1 mouse model assessed as maximum tumor regression at 100 mg/kg, po bid for 14 days; format: functional, U-87MG ATCC
[13] = Antitumor activity against human U87MG cells xenografted in nu/nu CD1 mouse model assessed as maximum tumor regression at 50 mg/kg, po bid for 14 days; format: functional, U-87MG ATCC
[14] = Antitumor activity against human U87MG cells xenografted in nu/nu CD1 mouse model assessed as tumor growth inhibition at 100 mg/kg, po bid for 14 days; format: functional, U-87MG ATCC; conditions: U-87 MG, 336 h, read-out: TGI
[15] = Antitumor activity against human U87MG cells xenografted in nu/nu CD1 mouse model assessed as maximum tumor regression at 200 mg/kg, po qd for 14 days; format: functional, U-87MG ATCC
MKN-45 [16] = test: Antitumor activity against human MKN45 cells xenografted in po dosed nu/nu CD1 mouse model assessed as tumor growth inhibition administered qd for 14 days; format: functional; conditions: MKN-45, po, 336 h
Mus musculus [17] = test: Inhibition of MET autophosphorylation at Y1234/1235 in human MKN45 cells xenografted in mouse at 100 mg/kg, po after 24 hrs; format: functional; conditions: MKN-45, 24 h
Mus musculus [18] = test: Inhibition of MET autophosphorylation at Y1234/1235 in human MKN45 cells xenografted in mouse at 100 mg/kg, po up to 8 hrs; format: functional; conditions: MKN-45, 8 h
[19] = Plasma concentration in human MKN45 cells xenografted in mouse at 100 mg/kg, po up to 8 hrs; format: ADME, organism-based, MKN-45; set-up: dose 100 mg/kg, route oral
Aurora kinase B = Aurora kinase B (Homo sapiens, UniProt Q96GD4); test: Inhibition of aurora-B (unknown origin) autophosphorylation
[20] = molecular target: Vascular endothelial growth factor receptor 2 (Homo sapiens, UniProt P35968); test: Inhibition of KDR (unknown origin) autophosphorylation
[21] = molecular target: T1, Macrophage-stimulating protein receptor (Homo sapiens, UniProt Q04912); test: Inhibition of RON (unknown origin) autophosphorylation
[22] = molecular target: ALK tyrosine kinase receptor (Homo sapiens, UniProt Q9UM73); test: Inhibition of ALK (unknown origin) autophosphorylation
[23] = molecular target: T2, Hepatocyte growth factor receptor (Homo sapiens, UniProt P08581); test: Inhibition of cMET in human MKN45 cells assessed as phosphorylated MET levels after 4 hrs in presence of mouse plasma; format: cell-based, MKN-45
[24] = Solubility of the compound at around physiological pH; format: physicochemical
[25] = Solubility of the compound at pH 3; format: physicochemical; conditions: buffer
[26] = AUC (0 to last) in Sprague-Dawley rat at 20 mg/kg, po; format: ADME, organism-based; set-up: time 0 - last, dose 20 mg/kg, route oral; conditions: plasma
[27] = Half life in Sprague-Dawley rat at 2 mg/kg, iv; format: ADME, organism-based; set-up: dose 2 mg/kg, route intravenous; conditions: in vivo
[28] = Cmax in Sprague-Dawley rat at 20 mg/kg, po; format: ADME, organism-based; set-up: dose 20 mg/kg, route oral; conditions: in vivo
[29] = Permeability of the compound at pH 7.4 by PAMPA; format: ADME; conditions: read-out: permeability
[30] = Half life in CD1 mouse at 2 mg/kg, iv; format: ADME, organism-based; set-up: dose 2 mg/kg, route intravenous; conditions: in vivo
[31] = Volume of distribution at steady state in CD1 mouse at 2 mg/kg, iv; format: ADME, organism-based; set-up: dose 2 mg/kg, route intravenous; conditions: in vivo, read-out: Vdss
[32] = Clearance in CD1 mouse at 2 mg/kg, iv; format: ADME, organism-based; set-up: dose 2 mg/kg, route intravenous; conditions: in vivo
[33] = Metabolic stability in human liver microsomes assessed as extraction ratio up to 40 mins by LC-MS/MS analysis; format: ADME, Microsome; conditions: read-out: ERH
[34] = molecular target: T1, Macrophage-stimulating protein receptor; test: Inhibition of short-form RON (unknown origin) expressed in human HeLa cells assessed as phosphorylated RON levels after 4 hrs; format: cell-based
[35] = molecular target: T2, Hepatocyte growth factor receptor; test: Inhibition of cMET in human MKN45 cells assessed as phosphorylated MET levels after 4 hrs; format: cell-based, MKN-45
MKN-45 [36] = test: Antiproliferative activity against human MKN45 cells after 3 days by CellTiter-Glo assay; format: functional, cell-based; conditions: MKN-45, 72 h
[37] = molecular target: T2, Hepatocyte growth factor receptor; test: Inhibition of cMET (unknown origin) using biotinylated poly(Glu,Tyr) as substrate after 60 mins
Mus musculus [38] = test: Toxicity in human SNU5 cells xenografted nu/nu CD1 mouse model assessed as body weigh loss at 50 mg/kg, po qd for 20 days; conditions: in vivo, 480 h
Mus musculus [39] = test: Toxicity in human SNU5 cells xenografted nu/nu CD1 mouse model assessed as body weigh loss at 200 mg/kg, po qd for 20 days; conditions: in vivo, 480 h
Mus musculus [40] = test: Toxicity in human SNU5 cells xenografted nu/nu CD1 mouse model assessed as body weigh loss at 100 mg/kg, po qd for 20 days; conditions: in vivo, 480 h
SNU-5 [41] = test: Antitumor activity against human SNU5 cells xenografted in nu/nu CD1 mouse model assessed as tumor growth inhibition at 50 mg/kg, po qd for 20 days; conditions: SNU-5, po, 480 h, read-out: TGI
SNU-5 [42] = test: Antitumor activity against human SNU5 cells xenografted in nu/nu CD1 mouse model assessed as maximum tumor regression at 200 mg/kg, po qd for 20 days

fraction unbound [6]: 0.019 | concentration at 8 h [19]: > 3000 nM | IC50 (Aurora kinase B): 11 nM | IC50 [20]: 1300 nM | IC50 [21]: 25 nM | IC50 [22]: 40 nM | IC50 [23]: 600 nM | solubility [24]: 1 µM (≈ 0.465 µg/mL) | solubility [25]: > 100 µM | AUC(0-t) [26]: 6200 ng·h/mL | half-life [27]: 120 min | Cmax [28]: 2500 nM | Papp [29]: 359 ×10⁻⁶ cm/s | half-life [30]: 174 min | Vd [31]: 3.8 L/kg | clearance [32]: 51 mL/min/kg | hepatic extraction ratio at 40 min [33]: 0.7 | IC50 [34]: 200 nM | IC50 [35]: 42 nM | IC50 (MKN-45 [36]): 130 nM | IC50 [37]: 26 nM
Structure (SMILES): C[C@@H](Oc1c(N)ncc2c(C3=CCN(C(N)=O)CC3)coc12)c1c(Cl)ccc(F)c1Cl
Activity [1]: 0% | inhibition in vivo at 200 mg/kg [2]: 94% | inhibition in vivo at 100 mg/kg [3]: 79% | inhibition in vivo at 50 mg/kg [4]: 58% | inhibition in vivo at 100 mg/kg (Mus musculus [5]): > 90% | Activity (Mus musculus [7]): 0% | Activity (Mus musculus [8]): 5% | Activity (Mus musculus [9]): 0% | Activity (Mus musculus [10]): 0% | Activity (Mus musculus [11]): 0% | Activity [12]: 22% | Activity [13]: 0% | inhibition in vivo at 100 mg/kg [14]: 97% | Activity [15]: 8% | ED50 (MKN-45 [16]): 50 mg/kg | inhibition in vivo at 100 mg/kg (Mus musculus [17]): 45% | inhibition in vivo at 100 mg/kg (Mus musculus [18]): > 80% | Activity (Mus musculus [38]): 4% | Activity (Mus musculus [39]): 4% | Activity (Mus musculus [40]): 2% | inhibition in vivo at 50 mg/kg (SNU-5 [41]): 100% | Activity (SNU-5 [42]): 80%

— ChEMBL document CHEMBL2401646 (Bioorg Med Chem Lett, 2013)
